This is an account of results in PMC3957892, “Antibiotic Streptolydigin Requires Noncatalytic Mg^2+ for Binding to RNA Polymerase” (Antimicrobial Agents and Chemotherapy, 2014).

Test [1] addresses T1, Thermus aquaticus RNAP β′M932A mutant (Thermus aquaticus, UniProt Q9KWU6+Q9KWU7, M1238A).
T1 construct: made in house
As to the kind of experiment: GTP incorporation in elongation complex, M932A mutant RNAP. Type of test: biochemical. As for the experimental part: (§1) Recombinant wild-type (WT) and mutant Thermus aquaticus core RNAPs were constructed and purified as described previously ([25]).
(§2) Elongation complexes (ECs) were assembled with WT and mutant (H936A/R933A and M932A [E. coli numbering]) RNAPs as described previously ([18]) and placed in transcription buffer containing 40 mM KCl and 20 mM Tris (pH 7.9). Prior to complex assembly, RNA was ^32P labeled at the 5′ end by using [γ-^32P]ATP (PerkinElmer). All reactions were carried out at 40°C. Stl (Sigma) with or without 10 mM MgCl2 was added before the reactions for 10 min at 40°C. Elongation reactions were initiated by addition of 1 mM GTP or 1 mM GTP with 10 mM MgCl2; endonucleolytic cleavage reactions were initiated by the addition of 10 mM MgCl2. Reactions were stopped by the addition of formamide-containing buffer, and products were analyzed as described previously ([18]). Fast kinetics experiments were performed as described previously ([18]). The kinetics data that were described well by a single exponent were fitted into a single-exponent equation using the nonlinear regression procedure in SigmaPlot software. Plots were normalized to the predicted maximum, which was taken as 100. The rates were then fitted in a hyperbolic equation to determine the Ki[Stl]. […]

For a further test, the system named is RNAP β′D792G. Details: method as in PMID 7592585. As to conditions: cited from earlier work.
In test [2] the target is T2, WT Thermus aquaticus core RNAP (Thermus aquaticus, UniProt Q9KWU6+Q9KWU7).
T2 construct: made in house
The test is described as follows: Intrinsic (endonucleolytic) cleavage / phosphodiester bond hydrolysis in elongation complex EC2, WT RNAP. Type of test: biochemical. As for the experimental part: as §1, §2

The target in test [3] is T3, Thermus aquaticus RNAP β′H936A/R933A mutant (Thermus aquaticus, UniProt Q9KWU6+Q9KWU7, H1242A/R1239A).
T3 construct: made in house
The test is described as follows: GTP incorporation in elongation complex, H936A/R933A mutant RNAP. Type of test: biochemical. As for the experimental part: as §1, §2

The nature of test [4]: Mg^2+ binding to Stl, titration followed by UV absorption spectrum. As to conditions: deduced from titration experiment (Fig. 2A), 20 mM HEPES buffer pH 8.0; read-out: Apparent affinity of Stl for Mg^2+. As for the experimental part:
The spectra of Stl were recorded using a UV160U UV-visible (UV-Vis) recording spectrophotometer (Shimadzu Scientific Instruments, Inc.) in a fused silica measuring cell in the presence of the indicated concentrations of the MgCl2 in 20 mM HEPES buffer (pH 8.0).
We attempted to directly visualize if Stl can bind Mg^2+. Stl has a distinct UV absorption spectrum.

In test [5] the target is T2, WT Thermus aquaticus core RNAP. As to the kind of experiment: GTP (NMP) incorporation in assembled elongation complex EC1, WT RNAP. The class given is biochemical. Particulars: for pKi: 1 mM GTP incorporation, 40°C. As for the experimental part: as §1
Elongation complexes (ECs) were assembled with WT and mutant (H936A/R933A and M932A [E. coli numbering]) RNAPs as described previously ([18]) and placed in transcription buffer containing 40 mM KCl and 20 mM Tris (pH 7.9). Prior to complex assembly, RNA was ^32P labeled at the 5′ end by using [γ-^32P]ATP (PerkinElmer). All reactions were carried out at 40°C. Stl (Sigma) with or without 10 mM MgCl2 was added before the reactions for 10 min at 40°C. Elongation reactions were initiated by addition of 1 mM GTP or 1 mM GTP with 10 mM MgCl2; endonucleolytic cleavage reactions were initiated by the addition of 10 mM MgCl2. Reactions were stopped by the addition of formamide-containing buffer, and products were analyzed as described previously ([18]). Fast kinetics experiments were performed as described previously ([18]). The kinetics data that were described well by a single exponent were fitted into a single-exponent equation using the nonlinear regression procedure in SigmaPlot software. Plots were normalized to the predicted maximum, which was taken as 100. The rates were then fitted in a hyperbolic equation to determine the Ki[Stl]. When the kinetics was described by a double exponent, the predicted maxima of the fast fractions were used for the fit to determine the Stl concentration that inhibited half of the complexes (equivalent of the Ki).
In order to investigate the details of the effects of Stl on RNAP active center functioning, we used artificially assembled elongation complexes (ECs). These complexes are assembled with Thermus aquaticus RNAP, fully complementary synthetic template and nontemplate DNA oligonucleotides, and an RNA oligonucleotide (Fig. 1C and D). […] We analyzed the kinetics of nucleoside monophosphate (NMP) addition in the presence of different concentrations of Stl in the elongation complex EC1, containing a 13-nucleotide-long RNA (Fig. 1C). […]

The test system of the next test is eukaryotic RNAPs. Details: method as in PMID 11124018, PMID 11297923, PMID 11839495. Particulars: cited from earlier work.
The next test has as its system E. coli RNAP β′N792D. Details: method as in PMID 16167380. As to conditions: cited from earlier work.
The next test concerns RNAP. Details: method as in PMID 791108. Particulars: Stl analog lacking the acetamide group; cited from earlier work.

pKd, pKi: −log10 of the molar value.

For the molecule `CNC(=O)[C@@H](C)[C@H]1C(=O)/C(=C(O)/C=C/C(C)=C/[C@@H](C)[C@H]2O[C@@]3(C)O[C@H](C=C[C@@]34CO4)[C@@H]2C)C(=O)N1[C@@H]1CC[C@H](O)[C@H](C)O1` [Stl, streptolydigin], the pKi is 6.19 in test [1]; 5.74 in test [2]; 6.09 in test [3]; 4.86 in [5] (Ki[Stl] (half-inhibitory concentration determined from the proportion of the fast fraction), Stl preincubated −Mg^2+); 6.05 in [5] (Ki[Stl], Stl preincubated +Mg^2+ (10 mM MgCl2)). Also, the “Half-inhibitory concentration of Stl for NMP incorporation, times lower than that for WT RNAP” value in test [1] (β′M932A RNAP vs WT RNAP) and in test [3] (β′H936A/R933A RNAP vs WT RNAP) was 15 to 20 times throughout. In the test on RNAP β′D792G, the “Effect of mutation β′D792G on sensitivity to Stl” value is “strong resistance”. Further, the “Concentration of Stl required to inhibit half of the ECs during hydrolysis, times lower than during NTP addition” value in [2] (WT RNAP, hydrolysis vs NTP addition, −Mg^2+ preincubation) is approximately 8 times. Moreover, the pKd in test [4] is approximately 3.00. In addition, the “Half-inhibitory concentration of Stl when preincubated with Mg^2+, times lower than when Mg^2+ was added together with NTP” value in test [5] (NMP incorporation) is reported as approximately 15 times. The “Inhibition of eukaryotic RNAPs” value in the test with eukaryotic RNAPs is listed as “does not inhibit”. For the same molecule, in the test with E. coli RNAP β′N792D, the “Effect of β′N792D substitution in E. coli RNAP on sensitivity to Stl” value was “significant enhancement of the enzyme sensitivity”.
Regarding tirandamycin, the “Inhibition of RNAP relative to Stl” value with RNAP is “significantly weaker inhibitor than Stl”.

As a reminder, the pKi is the Ki on a negative log10 scale, so that one unit is a factor of ten. High values mean a small Ki, low ones a large Ki.
